This passage reports Efficacy and chromatographic logP results from patent publication US10125126B2, “N-cycloalkyl-N-[(heterocyclylphenyl)methylene]-(thio)carboxamide derivatives” (BAYER CROPSCIENCE AG, priority 2012, dated 2018).

In series [1] the test system is Venturia inaequalis. Nature of the series: In vivo preventive test on Venturia inaequalis (apples). The conditions noted are these: 100 ppm of active ingredient, evaluated 10 days after inoculation. How it is done: In Vivo Preventive Test on Venturia inaequalis (apples) [table] To produce a suitable preparation of active compound, 1 part by weight of active compound is mixed with the stated amounts of solvent and emulsifier, and the concentrate is diluted with water to the desired concentration. To test for preventive activity, young plants are sprayed with the preparation of active compound at the stated rate of application. After the spray coating has dried on, the plants are inoculated with an aqueous conidia suspension of the causal agent of apple scab (Venturia inaequalis) and then remain for 1 day in an incubation cabinet at approximately 20° C. and a relative atmospheric humidity of 100%. The plants are then placed in a greenhouse at approximately 21° C. and a relative atmospheric humidity of approximately 90%.

For series [2], the system named is Septoria tritici. Nature of the series: In vivo preventive test on Septoria tritici (wheat). The note with it: 500 ppm of active ingredient; wheat plants; 24 days after contamination. An outline of the steps: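 Scipion wheat grown at 22° C, sprayed at 1-leaf stage (10 cm); controls received acetone/tween/DMSO/water without active. Inoculated 24 h later with S. tritici spores (500 000/mL), held 72 h at 18° C, 100% RH, then 21 days at 90% RH. % efficacy vs controls scored 24 days post-inoculation.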

Series [3] relates to Pyrenophora teres. Briefly: In vivo preventive test on Pyrenophora teres (barley). The conditions noted are these: 500 ppm of active ingredient; barley plants; 14 days after contamination. Summed up:
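Barley ("Plaisant") grown at 22° C was sprayed at the 1-leaf stage (10 cm) with active ingredient in acetone/tween/DMSO/water, with solvent-only controls. After 24 h, leaves were inoculated with Pyrenophora teres spores (12 000 spores per mL) from 12-day cultures. % efficacy versus controls graded 14 days post-contamination.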

A short description of series [4]: log P by HPLC on a reversed-phase column (C 18), EEC Directive 79/831 Annex V.A8. The note with it: logP. Format: physicochemical. An outline of the steps: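 Retention times were converted to log P by linear interpolation between two successive unbranched alkan-2-ones (3 to 16 carbon atoms) of known log P used for calibration. Elution ran at 40° C with a linear gradient from 10% to 90% acetonitrile against 0.1% aqueous formic acid.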

The test system of series [5] is Puccinia recondita. Briefly: In vivo preventive test on Puccinia recondita (brown rust on wheat). The conditions noted are these: 500 ppm of active ingredient; wheat plants; 12 days after contamination. Summed up:
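Wheat plants ("Scipion") at 1-leaf stage, grown at 22° C, were sprayed with compound, then inoculated 24 h later with Puccinia recondita spores (100 000 spores per mL). Efficacy (%) graded 12 days after inoculation relative to solvent-treated controls.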

Series [6] concerns Uromyces appendiculatus. Nature of the series: In vivo preventive test on Uromyces appendiculatus (bean rust). The conditions noted are these: 500 ppm of active ingredient; bean plants; 11 days after contamination. An outline of the steps:
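Saxa bean plants at 2-leaf stage, grown at 24° C., sprayed preventively with compound; 24 h later inoculated with U. appendiculatus spores (150 000 spores per mL). Percent efficacy graded 11 days after inoculation versus solvent-treated controls.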

The test system of series [7] is Alternaria brassicae. Briefly: In vivo preventive test on Alternaria brassicae (leaf spot on radish). The conditions noted are these: 500 ppm of active ingredient; radish plants; 6 days after contamination. An outline of the steps: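 Radish plants at cotyledon stage were sprayed with compound; controls got the acetone/tween/DMSO/water mix alone. After 24 h they were inoculated with Alternaria brassicae spores (50 000 spores per mL) and kept at 20 °C, 100% relative humidity. % efficacy versus controls was graded 6 days post-inoculation.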

Series [8] has as its system Leptosphaeria nodorum. Nature of the series: In vivo preventive test on Leptosphaeria nodorum (wheat). The note with it: 500 ppm of active ingredient, evaluated 8 days after inoculation. How it is done:
In Vivo Preventive Test on Leptosphaeria nodorum Test (Wheat) [table] To produce a suitable preparation of active compound, 1 part by weight of active compound or active compound combination is mixed with the stated amounts of solvent and emulsifier, and the concentrate is diluted with water to the desired concentration. To test for preventive activity, young plants are sprayed with the preparation of active compound or active compound combination at the stated rate of application. After the spray coating has been dried, the plants are sprayed with a spore suspension of Leptosphaeria nodorum. The plants remain for 48 hours in an incubation cabinet at approximately 20° C. and a relative atmospheric humidity of approximately 100%.

Regarding `CC(C)c1ccc(-c2csc3ccccc23)cc1CN(C(=O)c1c(C(F)F)nn(C)c1F)C1CC1` [I.157, N-[5-(1-benzothiophen-3-yl)-2-isopropylbenzyl]-N-cyclopropyl-3-(difluoromethyl)-5-fluoro-1-methyl-1H-pyrazole-4-carboxamide], the Efficacy is on record as 100% in series [1]; 90% in series [2]; 93% in series [3]; 98% in series [5]; 100% in series [6]; 100% in series [7]. Further, the Efficacy in series [8] came out at 100%. Also, in series [4], the chromatographic logP came out at 5.17.
